The structures appear in SMILES notation.

A word on the IC50: it is the midpoint of a concentration-inhibition curve.

For this experiment, the target named is Macrophage colony-stimulating factor 1 receptor (Homo sapiens, UniProt P07333). The experiment can be described thus: Biochemical Assay: IC50 values were determined using the Z′-LYTE® activity assay, with ATP concentration used at Km app for the specific assay (500 μM ATP for CSF-1R (FMS) and 75 μM ATP for KDR (VEGFR2)).The Z′-LYTE® biochemical assay employs a fluorescence-based, coupled-enzyme format and is based on the differential sensitivity of phosphorylated and non-phosphorylated peptides to proteolytic ….
Chain of Macrophage colony-stimulating factor 1 receptor (P07333 whole entry): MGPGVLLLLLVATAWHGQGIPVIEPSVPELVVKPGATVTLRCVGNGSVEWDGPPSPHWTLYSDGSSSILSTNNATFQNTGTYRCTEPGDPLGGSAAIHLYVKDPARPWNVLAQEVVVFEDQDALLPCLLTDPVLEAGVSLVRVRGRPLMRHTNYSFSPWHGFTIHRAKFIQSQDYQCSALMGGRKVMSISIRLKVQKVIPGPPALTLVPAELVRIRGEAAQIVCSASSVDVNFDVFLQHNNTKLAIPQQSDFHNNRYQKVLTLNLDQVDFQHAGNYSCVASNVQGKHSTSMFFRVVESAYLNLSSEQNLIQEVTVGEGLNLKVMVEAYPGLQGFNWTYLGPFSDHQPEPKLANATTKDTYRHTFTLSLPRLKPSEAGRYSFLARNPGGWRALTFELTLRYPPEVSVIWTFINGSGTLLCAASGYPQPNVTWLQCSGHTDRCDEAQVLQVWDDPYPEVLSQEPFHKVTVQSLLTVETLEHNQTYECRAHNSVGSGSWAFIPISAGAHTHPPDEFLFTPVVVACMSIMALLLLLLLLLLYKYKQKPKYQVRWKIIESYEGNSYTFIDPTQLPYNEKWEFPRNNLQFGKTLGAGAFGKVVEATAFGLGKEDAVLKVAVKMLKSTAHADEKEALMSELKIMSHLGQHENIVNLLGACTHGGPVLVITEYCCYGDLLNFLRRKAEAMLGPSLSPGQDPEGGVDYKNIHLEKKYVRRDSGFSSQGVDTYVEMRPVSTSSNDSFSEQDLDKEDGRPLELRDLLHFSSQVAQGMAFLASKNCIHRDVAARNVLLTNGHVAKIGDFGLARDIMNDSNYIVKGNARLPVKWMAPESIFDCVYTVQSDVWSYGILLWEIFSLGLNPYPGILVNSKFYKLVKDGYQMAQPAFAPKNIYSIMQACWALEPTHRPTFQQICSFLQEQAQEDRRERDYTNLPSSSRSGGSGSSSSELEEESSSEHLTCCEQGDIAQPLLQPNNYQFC
For `Cc1cc(OCCN(C)C)c2oc3cc(Oc4cccc(C(=O)Nc5ccccc5)c4)ccc3c(=O)c2c1`, the IC50 was less than 100 nM.

`Cc1cc(OCCCN2C[C@@H](C)N[C@@H](C)C2)c2oc3cc(Oc4ccc(CCC(=O)NC5CCCC5)nc4)ccc3c(=O)c2c1` displayed an IC50 of less than 100 nM.

Take `Cc1cc(OCCN(C)C)c2oc3cc(Oc4ccc(CCC(=O)N5CCCC5)nc4)ccc3c(=O)c2c1`: the IC50 is less than 100 nM.

`Cc1cc(OCCCN(C)C)c2oc3cc(Oc4cccc(NC(=O)Nc5ccccc5)c4)ccc3c(=O)c2c1` returned an IC50 of less than 100 nM.

Consider `Cc1cc(OCCN(C)C)c2oc3cc(Oc4cccc(NC(=O)Nc5ccccc5)c4)ccc3c(=O)c2c1`, for which the IC50 is less than 100 nM.

As to `Cc1cc(OCCCN(C)C)c2oc3cc(Oc4cccc(C(=O)Nc5ccccc5)c4)ccc3c(=O)c2c1`, the IC50 is less than 100 nM.

These data come from ChEMBL document CHEMBL5728507, “Tricyclic heterocyclic derivatives and uses thereof” (2021).
